Measurements published in the supplement of paper PMC11208160.

Experiment: recombinant UMI read abundance after kanamycin selection (control-corrected) (log10(CPM+1)); higher = more efficient recombination; extreme values may be limits of the assay; sequences stand for … in AGTGCAGAGAAAATCGGCCAGTTTTCTCTGCCTGCAGTCCGCATGCCGTGGGACCCCTTGGGTTCTAACCTGTTGCCTAGATTTATGCAGCGGACTGCCTTTCTCCCAAAGTGATAAACCGG…AGGTTGGTTTCACT; site = the 11-nt donor
Summary of the method: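 After plating on IPTG (0.07 mM) plus kanamycin, or unselected, in two replicates, recombinant UMIs were PCR-amplified across the donor–target junction and sequenced. The cells were Escherichia coli co-electroporated with a UMI-tagged donor and donor-binding-loop pair library and a target plasmid with a fixed target and T7-inducible IS621 bridge recombinase. Values are log10(CPM+1), with CPM averaged over replicates and scaled by control-derived factors.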
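Further: IS621 bridge recombinase in Escherichia coli cells against a fixed T5 target plasmid.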

Sequence	recombinant UMI read abundance (log10)
CTGCTACCATGGACCGGTTTTCCCGGTAATCCGTATTTGCT (site CTGCAACCTAG)	0
CTGCTACCATGGACCGGTTTTCCCGGTAATCCGTATTTGCT (site CTGCCACCTAG)	0.00361
CTGCTACCATGGACCGGTTTTCCCGGTAATCCGTATTTGCT (site CTGCGACCTAG)	0
CTGCTACCATGGACCGGTTTTCCCGGTAATCCGTATTTGCT (site CTGCTAACTAG)	0.00893
CTGCTACCATGGACCGGTTTTCCCGGTAATCCGTATTTGCT (site CTGCTACCTAA)	0.0092
CTGCTACCATGGACCGGTTTTCCCGGTAATCCGTATTTGCT (site CTGCTACCTAC)	0.00952
CTGCTACCATGGACCGGTTTTCCCGGTAATCCGTATTTGCT (site CTGCTACCTAG)	0
CTGCTACCATGGACCGGTTTTCCCGGTAATCCGTATTTGCT (site CTGCTACCTAT)	0
CTGCTACCATGGACCGGTTTTCCCGGTAATCCGTATTTGCT (site CTGCTACCTCG)	0.0163
CTGCTACCATGGACCGGTTTTCCCGGTAATCCGTATTTGCT (site CTGCTACCTGG)	0
CTGCTACCATGGACCGGTTTTCCCGGTAATCCGTATTTGCT (site CTGCTACCTTG)	0
CTGCTACCATGGACCGGTTTTCCCGGTAATCCGTATTTGCT (site CTGCTAGCTAG)	0
CTGCTACCATGGACCGGTTTTCCCGGTAATCCGTATTTGCT (site CTGCTATCTAG)	1.67
CTGCTACCATGGACCGGTTTTCCCGGTAATCCGTATTTGCT (site CTGCTCCCTAG)	0.543
CTGCTACCATGGACCGGTTTTCCCGGTAATCCGTATTTGCT (site CTGCTGCCTAG)	0.038
CTGCTACCATGGACCGGTTTTCCCGGTAATCCGTATTTGCT (site CTGCTTCCTAG)	0
CTGCTACCATGGACCGGTTTTCCCGGTAATCCGTATTTGCT (site CTGGTACCTAG)	0
CTGCTACCATGGACCGGTTTTCCCGGTAATCCGTATTTGCT (site CTGTTACCTAG)	0
CTGCTACCATGGACCGGTTTTCCCGGTAATCCGTATTTGCT (site CTTCTACCTAG)	0

Sequence	recombinant UMI read abundance (log10)
CTGCTACCATGGACCGGTTTTCCCGGTAATCCGTATTTGCT (site GTGCTACCTAG)	0
CTGCTACCATGGACCGGTTTTCCCGGTAATCCGTATTTGCT (site TTGCTACCTAG)	0.00622
CTGCTCTCATGGACCGGTTTTCCCGGTAATCCGTATTTGTA (site CTACTCTCTTA)	2.71
CTGCTCTCATGGACCGGTTTTCCCGGTAATCCGTATTTGTA (site CTCCTCTCTTA)	0.876
CTGCTCTCATGGACCGGTTTTCCCGGTAATCCGTATTTGTA (site CTGCTCTCTTA)	2.98
CTGCTCTCATGGACCGGTTTTCCCGGTAATCCGTATTTGTA (site CTTCTCTCTTA)	1.06
CTGCTGACATGGACCGGTTTTCCCGGTAATCCGTATTTGAC (site CTGCTGACTGT)	1.02
CTGCTTGCATGGACCGGTTTTCCCGGTAATCCGTATTTGAT (site CTGCTTGCTAT)	2.21
CTGGAAACATGGACCGGTTTTCCCGGTAATCCGTATTTGCT (site CTGGAAACTAG)	2.45
CTGGAAACATGGACCGGTTTTCCCGGTAATCCGTATTTGCT (site CTGGAAACTCG)	0.534
CTGGAAACATGGACCGGTTTTCCCGGTAATCCGTATTTGCT (site CTGGAAACTGG)	1.1
CTGGAAACATGGACCGGTTTTCCCGGTAATCCGTATTTGCT (site CTGGAAACTTG)	0.49
CTGGAAACATGGACCGGTTTTCCCGGTAATCCGTATTTGGA (site CTGGAAACTTA)	0.993
CTGGAAACATGGACCGGTTTTCCCGGTAATCCGTATTTGGA (site CTGGAAACTTC)	1.89
CTGGAAACATGGACCGGTTTTCCCGGTAATCCGTATTTGGA (site CTGGAAACTTG)	0
CTGGAAACATGGACCGGTTTTCCCGGTAATCCGTATTTGGA (site CTGGAAACTTT)	2.09
CTGGAGACATGGACCGGTTTTCCCGGTAATCCGTATTTGCA (site CTGGAAACTTG)	2.32
CTGGAGACATGGACCGGTTTTCCCGGTAATCCGTATTTGCA (site CTGGACACTTG)	2.12
CTGGAGACATGGACCGGTTTTCCCGGTAATCCGTATTTGCA (site CTGGAGACTTG)	2.66

Sequence	recombinant UMI read abundance (log10)
CTGGAGACATGGACCGGTTTTCCCGGTAATCCGTATTTGCA (site CTGGATACTTG)	1.03
CTGGCAACATGGACCGGTTTTCCCGGTAATCCGTATTTGCA (site CTGGAAACTTG)	0
CTGGCAACATGGACCGGTTTTCCCGGTAATCCGTATTTGCA (site CTGGCAACTTG)	1.01
CTGGCAACATGGACCGGTTTTCCCGGTAATCCGTATTTGCA (site CTGGGAACTTG)	0
CTGGCAACATGGACCGGTTTTCCCGGTAATCCGTATTTGCA (site CTGGTAACTTG)	0
CTGGCACCATGGACCGGTTTTCCCGGTAATCCGTATTTGGC (site CTGGCACCTGC)	0.523
CTGGCTGCATGGACCGGTTTTCCCGGTAATCCGTATTTGCG (site CTGGCTGCTCG)	0.887
CTGGTACCATGGACCGGTTTTCCCGGTAATCCGTATTTGCT (site CTGATACCTAG)	0
CTGGTACCATGGACCGGTTTTCCCGGTAATCCGTATTTGCT (site CTGCTACCTAG)	0
CTGGTACCATGGACCGGTTTTCCCGGTAATCCGTATTTGCT (site CTGGTACCTAG)	0
CTGGTACCATGGACCGGTTTTCCCGGTAATCCGTATTTGCT (site CTGTTACCTAG)	0
CTGTAAACATGGACCGGTTTTCCCGGTAATCCGTATTTGCA (site CTGAAAACTTG)	0
CTGTAAACATGGACCGGTTTTCCCGGTAATCCGTATTTGCA (site CTGCAAACTTG)	0.604
CTGTAAACATGGACCGGTTTTCCCGGTAATCCGTATTTGCA (site CTGGAAACTTG)	0
CTGTAAACATGGACCGGTTTTCCCGGTAATCCGTATTTGCA (site CTGTAAACTTG)	1.29
CTGTACCCATGGACCGGTTTTCCCGGTAATCCGTATTTGTA (site CTGTACCCTTA)	0.461
CTGTCTCCATGGACCGGTTTTCCCGGTAATCCGTATTTGTC (site CTGTCTCCTGA)	0.331
CTTAGATCATGGACCGGTTTTCCCGGTAATCCGTATTTGGG (site CTTAGATCTCC)	0.475
CTTATAACATGGACCGGTTTTCCCGGTAATCCGTATTTGGA (site CTTATAACTTC)	1
